From patent US11440870B2, “Cannabidiolic acid esters compositions and uses thereof” (Yissum Research Development Company of the Hebrew …, priority 2017, dated 2022)

Test system: anxiety-like responding in rats
Assay: Light-dark box emergence test after foot shock stress (anxiety-like responding)
Type: in vivo, male Sprague-Dawley rats
Settings: WAY100635 i.p. 15 min before VEH; P<0.05
From the text: Animal procedures complied with the Canadian Council on Animal Care, and the protocols were approved by the Institutional Animal Care Committee at University of Guelph. Animal studies are reported in compliance with the ARRIVE guidelines (Kilkenny et al., 2010; McGrath and Lilley, 2015). A total of 200 näive male Sprague-Dawley rats, obtained from Charles River Laboratories (St Constant, Quebec), were used for all in vivo studies. Rats were individually housed (for acute nausea studies) or pair-housed [for anticipatory nausea and light-dark emergence studies] in home cages made of opaque white plastic (48×26×20 cm), containing bed-o-cob bedding from Harlan Laboratories, Inc. (Mississauga, Ontario), a brown paper towel, and Crinkl'Nest™ from The Andersons, Inc. (Maumee, Ohio). Additionally, in the home cage, rats were provided with a soft white paper container that was 14 cm long and 12 cm in diameter. All rats were subjected to an ambient temperature of 21° C. and a 12/12 h light-dark schedule (lights off at 07:00 h) and maintained on food (Highland Rat Chow [8640]) and water ad libitum. For the acute and anticipatory nausea studies, their body weights ranged from 263 to 329 g on the day of conditioning. For the light-dark emergence studies, their body weights ranged from 320 to 387 g on the day of test.
For the in vivo experiment 3, anxiolytic-like responding was evaluated using the light-dark emergence apparatus, which consisted of an opaque white plastic rectangular box that was divided into two compartments: a small (25 cm wide×20.5 cm long×20.5 cm high) enclosed dark box built of opaque black plastic with a door (8 cm wide×10 cm high) leading to a larger (39.5 cm long×25 cm wide) open lit box. The open lit box was illuminated by one lamp (with a 60 W bulb, 180 lux in the light chamber) positioned 115 cm above the center of the lit box. A video camera was mounted over the top of the light-dark box, and the video tapes were analyzed by the Ethovision software (Noldus Information Technology, Leesburg, Va., USA) for the duration of time spent in the light box for the 5 min test. For the foot shock (FS) session, the rats were placed in sound attenuating MED Associates fear conditioning chambers (St. Albans, Vt., USA). The 6 min FS session consisted of six 0.8 mA foot shocks delivered 1 min apart. Each 0.5 s shock was preceded by a 30 s auditory tone (90 Db, 5000 Hz) as described by Bluett et al. (2014).
The effect of CBDA and HU-580 on anxiety-like responding was evaluated using the light-dark box emergence test following either foot shock stress or no foot shock (No FS) stress. […]

COc1ccccc1N1CCN(CCN(C(=O)C2CCCCC2)c2ccccn2)CC1 [WAY100635, reference compound]
Time spent in the light box after foot shock (FS) stress vs No FS: spent less time in the light box following FS stress than following No FS stress
